Patent publication US20240360185A1, “AV3 MUTANT INSECTICIDAL POLYPEPTIDES AND METHODS FOR PRODUCING AND USING SAME” (Vestaron Corporation, priority 2018, published 2024)
“And” between values parts separate entries of the source, which are not always exact repeats. Equal values may be shown once. “Also recorded” adds a separate entry of the source. Ends that are not written are not given here.

Columns and labels:
[1] = system: Aedes aegypti; assay: adult mosquito topical bioassay; type: in vivo; conditions: for Knock-down 50 at 3 hr, Average: Table 5; for Knock-down 50 at 3 hr: Table 5, single determinations; for paralysis and kill of adult mosquitos upon topical application: in vivo; for KD50 at 3-hours: post topical application; for synergy with permethrin: permethrin 500 ppb; for activity relative to native Av3: 3 hours post application
Experimental: Native Av3, R1K mutant Av3 (Av3a) and R1K+AC-Val double mutant Av3 (Av3a-C1, or Av3b) were evaluated in the adult mosquito topical bioassay. The adult mosquitoes were ordered from Benzon Research. The adult mosquitoes were immobilized using CO2 gas and transferred onto a CO2 pad with CO2 flowing to keep them immobilized during topical applications. A hand microapplicator equipped with 1 cc glass syringe with a 30 gouge straight needle was used for the application of droplet. 0.25 μl droplet of toxin solution per mosquito was pushed out from the needle and gently applied to the ventral side of the mosquito abdomen. The treated mosquitoes were put into a 2.5 oz. clear cup with moisture filter paper and lid with breathing holes. Score the treated mosquitoes for paralysis or death within 24 hours post-application. […] FIG. 13.

[2] = system: houseflies; assay: housefly feeding assay (oral toxicity); type: in vivo
Experimental: The oral toxicity of Av3+2−C1 peptide was evaluated in the housefly feeding assay by mixing 20 PPT Av3+2−C1 with fly food (1:1 sugar: dry milk) and observed for 96 hours. Knock-down and dead flies were observed starting at 24-hour post-feeding and accumulated with time. FIG. 19. Unlike the housefly injection bioassay, recovery from paralysis in the feeding assay was not observed, likely due to the fact that the houseflies were continuously dosed in the later bioassay. FIG. 20.

[3] = system: houseflies (Musca domestica); assay: housefly injection assay; type: in vivo; conditions: for lowest dose to produce knock-down activity: within the first 4 hours post injection; for toxicity to houseflies by injection / activities in fly injection assay: in vivo; for effect on housefly mortality: dose of 10, 50, and 100 nmol/g for 24 hours; for recovery of the knock-down flies: 100 pmol/g dose; for lethal activity to houseflies: injection
Experimental: An exemplary housefly injection bioassay is as follows: conditioned media is serially diluted to generate full dose-response curves from the housefly injection bioassay. Before injection, adult houseflies (Musca domestica) are immobilized with CO2, and 12-18 mg houseflies are selected for injection. A microapplicator, loaded with a 1 cc syringe and 30-gauge needle, is used to inject 0.5 μL per fly, doses of serially diluted conditioned media samples into houseflies through the body wall of the dorsal thorax. The injected houseflies are placed into closed containers with moist filter paper and breathing holes on the lids, and they are examined by knock-down ratio or by mortality scoring at 24 hours post-injection. Normalized yields are calculated. Peptide yield means the peptide concentration in the conditioned media in units of mg/L. However, peptide yields are not always sufficient to accurately compare the strain production rate. […] The cell density is represented by the light absorbance at 600 nm with a unit of “A” (Absorbance unit).
A Housefly injection assay was performed to compare the activity of Av3b with GenScript Synthetic Av3b. FIG. 33. Adult houseflies were immobilized in CO2 for 10 minutes and then transferred to a CO2 pan to keep them immobilized. Flies with weight between 12-20 mg were picked for injection. The synthetic peptides were diluted in water to proper doses for injection. 0.5 μL peptide solution was injected into housefly at the dorsal thorax using a hand-microapplicator with 1 cc all-glass syringe with 30 gouge straight needle. The injected flies were then transferred to a 2 oz transparent portion container with a wet #4 filter paper. Fly score was accessed at 2 hour, 3 hour, 4 hour and 24 hour post-injection. […] Core-5 and Core-4 synthetic polypeptides were also evaluated in the housefly injection assay. FIG. 34. […] FIG. 36.

[4] = incubation of purified peptide in fermentation beer with untransformed K. lactis; type: physicochemical; conditions: 8 days at room temperature
Experimental: The pLB102-YCT-18 strain's apparent expression of two Av3+2 peptides, i.e., Av3+2 and Av3+2−C1, raised the question as to whether the C-Val cleavage observed in Peak 1 (SEQ ID NO: 19) occurred during peptide expression and secretion, or whether it occurred in the spent medium/fermentation beer as a result of endogenous proteases secreted from K. lactis. To answer this question, Av3+2 peptide was purified according to the abovementioned methods, and incubated with the fermentation beer in concert with untransformed K. lactis strain (i.e., a null strain) for 8 days at room temperature (RT). FIG. 4.

[5] = system: crustacean and insect sodium channels; conditions: cited from earlier work
[6] = 1000 pmol/g dose, overnight observation
[7] = Table 9, synthetic polypeptides

In the case of “GSRSCCPCYWGGCPWGQNCYPEGCSGPK (ends and bridges not checked; cysteine pairing not given here) [Av3+2−C1]”, the “Knock-down 50 at 3 hr, Average” value [1] is reported as 747.9 ppm, the “Knock-down 50 at 3 hr” value [1] is reported as 952.7 ppm and 543.1 ppm and the “paralysis and kill of adult mosquitos upon topical application” value [1] is reported as “fast paralyze and eventually kill adult mosquitoes”. For the same substance, the “KD50 at 3-hours” value [1] was 543.12 ppm and 500-900 ppm and 952.69 ppm, the “recovery after maximum knock-down” value ([1]; topical application) was “recovery was observed thereafter” and the “knock-down and dead flies first observed post-feeding” value ([2]; 20 PPT mixed with fly food) was 24 h. For the same substance, the “oral toxicity to houseflies” value ([2]; 20 PPT mixed with fly food, observed for 96 hours) was “toxic to houseflies when consumed and/or upon oral contact”, the recovery from paralysis ([2]; continuous feeding, 20 PPT) was “not observed” and the “recovery of knock-down flies” value [3, 6] was “Recovery of the knock-down flies was observed”. For the same substance, the “recovery of knock-down flies” value ([3]; 5000 and 20000 pmol/g doses) was “No recovery was observed”, the “KD50 at 4-hours” value ([3]; housefly injection) was 651 pmol/g and the “lowest dose to produce knock-down activity” value [3] was 500 pmol/g.
With “GSRSCCPCYWGGCPWGQNCYPEGCSGPKV (not fully specified; ends and bridges not checked) [Av3+2]” the “Knock-down 50 at 3 hr, Average” value [1] was 281.5 ppm, the “Knock-down 50 at 3 hr” value [1] was 230 ppm and 235.7 ppm and 347.7 ppm and 312.6 ppm and the “KD50 relative to that observed for native Av3” value ([1]; at 3-hours) was “roughly 5 fold”. For the same substance, the “paralysis and kill of adult mosquitos upon topical application” value [1] was “fast paralyze and eventually kill adult mosquitoes”, the synergy with permethrin ([1]; peptide 200 ppm) was “some synergy” and the “KD50 at 3-hours” value [1] was 235.71 ppm and 312.57 ppm and 200-300 ppm and 229.9 ppm. For the same substance, the “recovery after maximum knock-down” value ([1]; topical application) was “limited recovery thereafter; also recorded: recovery observed over time; also recorded: not much recovery effects observed thereafter”, the “recovery of knock-down flies” value [3, 6] was “Recovery of the knock-down flies was observed” and the “recovery of knock-down flies” value ([3]; 5000 and 20000 pmol/g doses) was “No recovery was observed”. The “paralysis effect in combination with fermentation beer from AaIT1 expression K. lactis strain” value ([3]; Av3+2 peptide at 500 pmol/g dose) was “synergistic instead of additive paralysis effect”, the “KD50 at 4-hours” value ([3]; housefly injection) was 490 pmol/g and the “toxicity to houseflies by injection” value [3] was “toxic to houseflies”. For the same substance, the “lowest dose to produce knock-down activity” value [3] was 100 pmol/g and the “C-Val cleavage / stability” value [4] was “did not result in any apparent C-Val cleavage”.
In the case of “KACCPCYWAACPWAAACYAAACAAAK (Pharmacophore mutant) [Core 4]”, the “activities in fly injection assay” value [3] is reported as “dramatically reduced activities”.
For “KACCPCYWGGCPWGAACYPAGCAAAK (Pharmacophore mutant) [Core 5]”, the “KD50 at 3 hr” value [3, 7] was 1621 pmol/g and the activity reduced ([3]; housefly injection) was “around 3 fold”.
In the case of “KPYWPWYK (Pharmacophore mutant) [Core-3]”, the “effect on housefly mortality” value [3] is reported as “did not appear to have an effect on housefly mortality”.
In the case of “KPYWPWYKV (Pharmacophore mutant) [Core-2]”, the “effect on housefly mortality” value [3] is reported as “did not appear to have an effect on housefly mortality”.
With KSCCPCYWGGCPWGQNCYPEGCSGPK [Av3b] the “activity relative to native Av3” value ([1]; listed as Av3a-C1) was “two-fold less active; also recorded: about twice as less active”, the “Knock-down 50 at 3 hr, Average” value [1] was 81.63 ppm and the “Knock-down 50 at 3 hr” value ([1]; listed as Av3a-C1) was 86.9 ppm and 86.1 ppm and 71.9 ppm. For the same substance, the “KD50 at 3-hours” value [1] was 71.9 ppm, the “KD50 at 3 hr” value ([3]; Table 8, AAA Calibrate stock at 32.5 mg/mL) was 172.22 pmol/g and the “KD50 at 3 hr” value ([3]; Table 8, non-AAA stock at 50 mg/mL) was 265.21 pmol/g.
For “KSCCPCYWGGCPWGQNCYPEGCSGPK [Synthetic Av3b]”, the “KD50 at 3 hr” value ([3]; Table 8, synthetic peptide) was 633.02 pmol/g, the “KD50 at 3 hr” value [3, 7] was 540 pmol/g and the “activities in fly injection assay” value [3] was “showed activities in fly injection assay”.
With KSCCPCYWGGCPWGQNCYPEGCSGPKV [Av3a] the “activity relative to native Av3” value [1] was “the same as native Av3”, the “Knock-down 50 at 3 hr, Average” value [1] was 109.05 ppm and the “KD50 at 3-hours” value [1] was 38.8 ppm.
With PYWPWY (Pharmacophore mutant) [Core-1] the “effect on housefly mortality” value [3] was “did not appear to have an effect on housefly mortality”.
In the case of “RSCCPCYWGGCPWGQNCYPEGCSGPK (ends and bridges not checked; cysteine pairing not given here) [Av3-C1]”, the “recovery of the knock-down flies” value ([3]; overnight observation) is reported as “very rare”, the “KD50 at 4-hours” value ([3]; housefly injection) is reported as 521 pmol/g and the “lethal activity to houseflies” value [3] is reported as “no potent lethal activity”.
For “RSCCPCYWGGCPWGQNCYPEGCSGPKV [Av3, reference compound]”, the “Knock-down 50 at 3 hr, Average” value [1] was 45.98 ppm, the synergy with permethrin [1] was “some synergy” and the “KD50 at 3-hours” value ([1]; listed as Native Av3) was 58 ppm and 42.6 ppm. For the same substance, the “recovery after maximum knock-down” value ([1]; topical application) was “no obvious recovery observed thereafter”, the “time at which knock-down effect reached its maximum” value ([1]; topical application) was 1 h and the “recovery of the knock-down flies” value ([3]; overnight observation) was “very rare”. For the same substance, the “KD50 at 4-hours” value ([3]; housefly injection) was 606 pmol/g, the “toxicity to houseflies by injection” value [3] was “toxic to houseflies” and the “lethal activity to houseflies” value [3] was “no potent lethal activity”. For the same substance, the “selectivity for crustacean and insect sodium channels” value [5] was “high selectivity”.
